Assay results taken from ChEMBL document CHEMBL1152415, “Potent antitumor bifunctional DNA alkylating agents, synthesis and biological activities of 3a-aza-cyclopenta[a]indenes” (Bioorg Med Chem, 2009).
The source made the active and inactive calls. The rule behind the calls is not given here.

How the values were obtained:
CCRF-CEM [1] = assay: Cytotoxicity against human vinblastine-resistant CCRF-CEM cells after 72 hrs by XTT assay; type: functional, cell-based
CCRF-CEM [2] = assay: Cytotoxicity against human CCRF-CEM cells after 72 hrs by XTT assay; type: functional, cell-based; settings: read-out: IC50
CCRF-CEM [3] = assay: Cytotoxicity against human taxol-resistant CCRF-CEM cells after 72 hrs by XTT assay; type: functional, cell-based
CCRF-CEM [4] = assay: Cross-resistance, IC50 for human vinblastine-resistant CCRF-CEM cells to IC50 for human CCRF-CEM cells; type: functional
CCRF-CEM [5] = assay: Cross-resistance, IC50 for human taxol-resistant CCRF-CEM cells to IC50 for human CCRF-CEM cells; type: functional
MX1 [6] = assay: Cytotoxicity against human MX1 cells after 72 hrs by SRB assay; type: functional, cell-based; settings: MX1, 72 h
HCT-116 = assay: Cytotoxicity against human HCT116 cells after 72 hrs by SRB assay; type: functional, cell-based; settings: HCT-116, 72 h
[7] = Cytotoxicity against human H1299 cells after 72 hrs by WST-1 assay; type: functional, cell-based; settings: NCI-H1299, 72 h
[8] = Cytotoxicity against human OECM1 cells after 72 hrs by WST-1 assay; type: functional, cell-based; settings: OECM1, 72 h
PC-3 = assay: Cytotoxicity against human PC3 cells after 72 hrs by WST-1 assay; type: functional, cell-based; settings: PC-3, 72 h
[9] = Cytotoxicity against human U87 cells after 72 hrs by WST-1 assay; type: functional, cell-based, U-87MG ATCC; settings: U-87 MG
Nucleic Acid [10] = assay: Induction of pEGFP-N1 plasmid DNA interstrand cross-linking at 1 uM after 2 hrs by alkaline agarose gel shift assay; type: nucleic-acid assay
Nucleic Acid [11] = assay: Induction of pEGFP-N1 plasmid DNA interstrand cross-linking at 10 uM after 2 hrs by alkaline agarose gel shift assay; type: nucleic-acid assay
Nucleic Acid [12] = assay: Induction of pEGFP-N1 plasmid DNA interstrand cross-linking at 20 uM after 2 hrs by alkaline agarose gel shift assay; type: nucleic-acid assay
Nucleic Acid [13] = assay: Induction of DNA interstrand cross-linking in human H1299 cells at 100 uM under aerobic condition for 1 hr followed by irradiated with 20 Gy of X-ray by modified comet assay relative to irradiated untreated control; type: cell-based
[14] = Cell cycle arrest in human H1299 cells assessed as accumulation at subG1 phase at 10 uM after 24 hrs by flow cytometry relative to control; type: functional, cell-based; settings: NCI-H1299
[15] = Cell cycle arrest in human H1299 cells assessed as accumulation at G0/G1 phase at 10 uM after 24 hrs by flow cytometry relative to control; type: functional, cell-based; settings: NCI-H1299
[16] = Cell cycle arrest in human H1299 cells assessed as accumulation at S phase at 10 uM after 24 hrs by flow cytometry relative to control; type: functional, cell-based; settings: NCI-H1299
[17] = Cell cycle arrest in human H1299 cells assessed as accumulation at G2/M phase at 10 uM after 24 hrs by flow cytometry relative to control; type: functional, cell-based; settings: NCI-H1299
[18] = Cell cycle arrest in human H1299 cells assessed as accumulation at subG1 phase at 10 uM after 48 hrs by flow cytometry relative to control; type: functional, cell-based; settings: NCI-H1299
[19] = Cell cycle arrest in human H1299 cells assessed as accumulation at G0/G1 phase at 10 uM after 48 hrs by flow cytometry relative to control; type: functional, cell-based; settings: NCI-H1299
[20] = Cell cycle arrest in human H1299 cells assessed as accumulation at S phase at 10 uM after 48 hrs by flow cytometry relative to control; type: functional, cell-based; settings: NCI-H1299
[21] = Cell cycle arrest in human H1299 cells assessed as accumulation at G2/M phase at 10 uM after 48 hrs by flow cytometry relative to control; type: functional, cell-based; settings: NCI-H1299
[22] = Cell cycle arrest in human H1299 cells assessed as accumulation at subG1 phase at 10 uM after 72 hrs by flow cytometry relative to control; type: functional, cell-based; settings: NCI-H1299
[23] = Cell cycle arrest in human H1299 cells assessed as accumulation at G0/G1 phase at 10 uM after 72 hrs by flow cytometry relative to control; type: functional, cell-based; settings: NCI-H1299
[24] = Cell cycle arrest in human H1299 cells assessed as accumulation at S phase at 10 uM after 72 hrs by flow cytometry relative to control; type: functional, cell-based; settings: NCI-H1299
[25] = Cell cycle arrest in human H1299 cells assessed as accumulation at G2/M phase at 10 uM after 72 hrs by flow cytometry relative to control; type: functional, cell-based; settings: NCI-H1299
[26] = Toxicity in athymic nu/nu mouse assessed as maximum tolerated dose; type: organism-based; settings: in vivo, read-out: Activity
MX1 [27] = assay: Antitumor activity in human MX1 cells xenografted athymic nu/nu mouse assessed as complete remission of tumor at 50 mg/kg, iv administered daily once for 3 days; type: functional, organism-based; parameters: dose 50 mg/kg
MX1 [28] = assay: Antitumor activity in human MX1 cells xenografted athymic nu/nu mouse assessed as complete remission of tumor at 5 mg/kg, iv administered daily once for 3 days; type: functional, organism-based; parameters: dose 5 mg/kg
MX1 [29] = assay: Antitumor activity in human MX1 cells xenografted athymic nu/nu mouse assessed as complete remission of tumor at 18 mg/kg, iv administered daily twice for 2 days; type: functional, organism-based; parameters: dose 18 mg/kg
MX1 [30] = assay: Antitumor activity in human MX1 cells xenografted athymic nu/nu mouse assessed as complete remission of tumor at 15 mg/kg, iv administered daily twice for 4 days; type: functional, organism-based; parameters: dose 15 mg/kg
MX1 [31] = assay: Antitumor activity in human MX1 cells xenografted athymic nu/nu mouse assessed as tumor re-growth at 18 mg/kg, iv administered daily twice for 2 days measured after 40 days of tumor implantation; type: functional, organism-based; parameters: dose 18 mg/kg
SK-OV-3 = assay: Antitumor activity in human SKOV3 cells xenografted athymic nu/nu mouse assessed as tumor suppression at 20 mg/kg, iv administered daily once for 4 days measured after 22 days relative to control; type: functional

Activity (Nucleic Acid [10])	Activity (Nucleic Acid [11])	Activity (Nucleic Acid [12])	Compound	IC50 (CCRF-CEM [1]) [nM]	IC50 (CCRF-CEM [2]) [nM]	IC50 (CCRF-CEM [3]) [nM]	Ratio IC50 (CCRF-CEM [4])	Ratio IC50 (CCRF-CEM [5])	IC50 (MX1 [6]) [nM]	IC50 (HCT-116) [nM]	IC50 [7] [µM]	IC50 [8] [nM]	IC50 (PC-3) [µM]	IC50 [9] [µM]	Activity (Nucleic Acid [13]) [%]	Activity [14] [%]	Activity [15] [%]	Activity [16] [%]	Activity [17] [%]	Activity [18] [%]	further results
Active	Active	Active	COc1ccc(-c2c(CO)c(CO)c3n2-c2ccc(OC)cc2C3)cc1	140	120	62	1.2	0.53	1500	670	19	1540	23.2	24.4	35.5	1.95	43.7	50.5	5.84	3.88	Activity [19]: 19.3%; Activity [20]: 38.9%; Activity [21]: 41.9%; Activity [22]: 15.6%; Activity [23]: 1.8%; Activity [24]: 24.6%; Activity [25]: 73.6%
Active	Active	Active	CNC(=O)OCc1c(COC(=O)NC)c(-c2ccc(OC)cc2)n2c1Cc1cc(OC)ccc1-2	98	62	62	1.6	1	870	440	20.9	1270	22	38.3	97.9	2.64	44.7	51.1	4.15	5.86	Activity [19]: 24.9%; Activity [20]: 25.6%; Activity [21]: 49.5%; Activity [22]: 17.2%; Activity [23]: 5.06%; Activity [24]: 9.19%; Activity [25]: 85.8%

Compound	Activity (Nucleic Acid [10])	Activity (Nucleic Acid [11])	Activity (Nucleic Acid [12])	IC50 (CCRF-CEM [1]) [nM]	IC50 (CCRF-CEM [2]) [nM]	IC50 (CCRF-CEM [3]) [nM]	Ratio IC50 (CCRF-CEM [4])	Ratio IC50 (CCRF-CEM [5])	IC50 (MX1 [6]) [nM]	IC50 (HCT-116) [nM]	IC50 [7] [µM]	IC50 [8] [nM]	IC50 (PC-3) [µM]	IC50 [9] [µM]	Activity (Nucleic Acid [13]) [%]	Activity [14] [%]	Activity [15] [%]	Activity [16] [%]	Activity [17] [%]	Activity [18] [%]	further results
Cc1c(CO)c(CO)c2n1-c1ccccc1C2	Active	Active	Active	67	10	32	–	–	360	340	15.2	860	19.7	19.3	–	–	–	–	–	–	MTD [26]: 18 mg/kg; Activity (MX1 [27]): Active; Activity (MX1 [28]): Active; Activity (MX1 [29]): Active; Activity (MX1 [30]): Active; Activity (MX1 [31]): inactive; Activity (SK-OV-3): 53%
